The source of these data is PubChem BioAssay AID248 (DTP/NCI, 2004).

Molecules are shown by their SMILES. Values joined by “and” are separate entries in the source; they are usually repeats but may differ in a detail not shown here. Equal entries are not always repeated. Toxic doses and inconclusive results are not listed.

The test system of this assay is L1210 leukemia ip in BDF1 mice, survival T/C. Put plainly: NCI In Vivo Anticancer Drug Screen. Data for tumor model L1210 Leukemia (intraperitoneal) in B6D2F1 (BDF1) mice. The conditions noted are these: endpoint: mean survival time, higher = longer survival. The procedure, abridged: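 Ratio derived from survival: compound-dosed mice over vehicle-dosed mice, all bearing a transplantable tumor.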

Setting [1] is: dose: 100.0 mg/kg/injection, schedule: Q01DX001 (ip), vehicle: carboxymethylcellulose (CMC).
The mark [2] stands for this setting: dose: 200.0 mg/kg/injection, schedule: Q01DX001 (ip), vehicle: carboxymethylcellulose (CMC).
Setting [3] is: dose: 400.0 mg/kg/injection, schedule: Q01DX001 (ip), vehicle: carboxymethylcellulose (CMC).
Where [4] appears, read: dose: 100.0 mg/kg/injection, schedule: Q01DX009 (ip), vehicle: saline.
[5] abbreviates: dose: 200.0 mg/kg/injection, schedule: Q01DX009 (ip), vehicle: saline.
Where [6] appears, read: dose: 100.0 mg/kg/injection, schedule: Q01DX001 (ip), vehicle: saline.
Where [7] appears, read: dose: 200.0 mg/kg/injection, schedule: Q01DX001 (ip), vehicle: saline.
Setting [8] is: dose: 400.0 mg/kg/injection, schedule: Q01DX001 (ip), vehicle: saline.
The mark [9] stands for this setting: dose: 50.0 mg/kg/injection, schedule: Q01DX009 (ip), vehicle: saline.

With `CC(=O)N(c1ccccc1)c1nc(CCl)cs1`, the T/C is, setting by setting: under setting [1], 100 % of control; (dose: 100.0 mg/kg/injection, schedule: Q01DX009 (ip), vehicle: carboxymethylcellulose (CMC)) 88 % of control; (dose: 100.0 mg/kg/injection, schedule: Q04DX002 (ip), vehicle: carboxymethylcellulose (CMC)) 97 % of control and 100 % of control; (dose: 100.0 mg/kg/injection, schedule: Q04DX003 (ip), vehicle: carboxymethylcellulose (CMC)) 100 % of control; under setting [2], 108 % of control; (dose: 200.0 mg/kg/injection, schedule: Q01DX009 (ip), vehicle: carboxymethylcellulose (CMC)) 98 % of control and 89 % of control. The T/C (dose: 200.0 mg/kg/injection, schedule: Q04DX002 (ip), vehicle: carboxymethylcellulose (CMC)) is 95 % of control and 103 % of control; the T/C (dose: 200.0 mg/kg/injection, schedule: Q04DX003 (ip), vehicle: carboxymethylcellulose (CMC)) was 102 % of control; the T/C under setting [3] was 93 % of control; the T/C (dose: 400.0 mg/kg/injection, schedule: Q01DX009 (ip), vehicle: carboxymethylcellulose (CMC)) is 98 % of control and 103 % of control; the T/C (dose: 400.0 mg/kg/injection, schedule: Q04DX002 (ip), vehicle: carboxymethylcellulose (CMC)) is 100 % of control and 102 % of control; the T/C (dose: 400.0 mg/kg/injection, schedule: Q04DX003 (ip), vehicle: carboxymethylcellulose (CMC)) was 104 % of control.
As to `OCC1OC(O)C(O)C(O)C1O` (stereo not drawn), the T/C is 96 % of control under setting [4]; 98 % of control under setting [5]; 107 % of control (dose: 400.0 mg/kg/injection, schedule: Q01DX009 (ip), vehicle: saline); 93 % of control (dose: 500.0 mg/kg/injection, schedule: Q01DX009 (ip), vehicle: saline); 96 % of control (dose: 500.0 mg/kg/injection, schedule: Q04DX003 (ip), vehicle: saline); 90 % of control (dose: 1000.0 mg/kg/injection, schedule: Q01DX009 (ip), vehicle: saline). In addition, the T/C by setting is: (dose: 1000.0 mg/kg/injection, schedule: Q04DX003 (ip), vehicle: saline) 96 % of control; (dose: 2000.0 mg/kg/injection, schedule: Q01DX009 (ip), vehicle: saline) 106 % of control; (dose: 2000.0 mg/kg/injection, schedule: Q04DX003 (ip), vehicle: saline) 93 % of control; (dose: 4000.0 mg/kg/injection, schedule: Q01DX009 (ip), vehicle: saline) 102 % of control; (dose: 4000.0 mg/kg/injection, schedule: Q04DX003 (ip), vehicle: saline) 94 % of control.
For the molecule `CCOC(=O)Nc1nn[nH]n1`, the T/C reads like this: (dose: 50.0 mg/kg/injection, schedule: Q01DX001 (ip), vehicle: carboxymethylcellulose (CMC)) 92 % of control; under setting [1], 97 % of control; under setting [2], 101 % of control; under setting [3], 90 % of control.
`CC(=O)NCCc1[nH]cnc1N=Nc1ccc(Br)cc1`: the T/C (dose: 100.0 mg/kg/injection, schedule: Q01DX001 (ip), vehicle: saline with Tween-80) is 96 % of control; the T/C (dose: 200.0 mg/kg/injection, schedule: Q01DX001 (ip), vehicle: saline with Tween-80) is 96 % of control; the T/C (dose: 400.0 mg/kg/injection, schedule: Q01DX001 (ip), vehicle: saline with Tween-80) was 94 % of control.
As to `CCCCN(CC)C(=S)[S-].CCCCN(CC)C(=S)[S-].[Zn]`, the T/C (dose: 2.5 mg/kg/injection, schedule: Q01DX009 (ip), vehicle: saline) was 100 % of control; the T/C (dose: 5.0 mg/kg/injection, schedule: Q01DX009 (ip), vehicle: saline) was 95 % of control; the T/C (dose: 10.0 mg/kg/injection, schedule: Q01DX001 (ip), vehicle: saline) was 98 % of control; the T/C (dose: 10.0 mg/kg/injection, schedule: Q01DX009 (ip), vehicle: saline) is 95 % of control; the T/C (dose: 10.0 mg/kg/injection, schedule: Q04DX003 (ip), vehicle: saline) was 105 % of control; the T/C (dose: 20.0 mg/kg/injection, schedule: Q01DX001 (ip), vehicle: saline) is 89 % of control. In addition, the T/C by setting is: (dose: 20.0 mg/kg/injection, schedule: Q04DX003 (ip), vehicle: saline) 103 % of control; (dose: 40.0 mg/kg/injection, schedule: Q01DX001 (ip), vehicle: saline) 91 % of control.
Take `COC1OC(COC(C)=O)C(OC(C)=O)C(NC(=O)NCCCl)C1OC(C)=O` (stereo not drawn): the T/C (dose: 100.0 mg/kg/injection, schedule: Q01DX001 (ip), vehicle: Klucel (hydroxypropylcellulose) (HPC)) was 105 % of control; the T/C (dose: 200.0 mg/kg/injection, schedule: Q01DX001 (ip), vehicle: Klucel (hydroxypropylcellulose) (HPC)) is 102 % of control; the T/C (dose: 400.0 mg/kg/injection, schedule: Q01DX001 (ip), vehicle: Klucel (hydroxypropylcellulose) (HPC)) is 102 % of control.
As for `O=[N+]([O-])c1sc2ccccc2c1/C=C/c1csc2ccccc12`, the T/C runs as follows: under setting [6], 87 % of control; under setting [7], 91 % of control; under setting [8], 97 % of control.
Consider `CSCSCC(N)C(=O)O` (stereo not drawn), for which the T/C by setting is: under setting [6], 94 % of control; (dose: 150.0 mg/kg/injection, schedule: Q04DX003 (ip), vehicle: saline) 100 % of control; under setting [7], 100 % of control; (dose: 300.0 mg/kg/injection, schedule: Q04DX003 (ip), vehicle: saline) 94 % of control; under setting [8], 100 % of control; (dose: 600.0 mg/kg/injection, schedule: Q04DX003 (ip), vehicle: saline) 97 % of control.
As for `CC1(C)N=C(N)N=C(N)N1c1cccc(OCCOc2ccc(NC(=O)CBr)cc2)c1`, the T/C by setting is: under setting [9], 124 % of control; under setting [6], 94 % of control; (dose: 100.0 mg/kg/injection, schedule: Q01DX009 (ip), vehicle: other) 172 % of control; (dose: 150.0 mg/kg/injection, schedule: Q01DX009 (ip), vehicle: other) 154 % of control; under setting [7], 109 % of control; (dose: 200.0 mg/kg/injection, schedule: Q01DX009 (ip), vehicle: other) 100 % of control. The T/C by setting is: under setting [5], 97 % of control; under setting [8], 112 % of control.
Turning to `Clc1ccc(CN2COc3c(ccc4cccnc34)C2)cc1Cl`, the T/C by setting is: (dose: 100.0 mg/kg/injection, schedule: Q04DX003 (ip), vehicle: saline sonified) 105 % of control; (dose: 200.0 mg/kg/injection, schedule: Q04DX003 (ip), vehicle: saline sonified) 94 % of control; (dose: 400.0 mg/kg/injection, schedule: Q04DX003 (ip), vehicle: saline sonified) 100 % of control.
Regarding `S=C(Cc1ccccc1)N1CCCCC1`, the T/C was 108 % of control (dose: 100.0 mg/kg/injection, schedule: Q01DX009 (ip), vehicle: Klucel (hydroxypropylcellulose) (HPC)); 100 % of control (dose: 100.0 mg/kg/injection, schedule: Q04DX003 (ip), vehicle: Klucel (hydroxypropylcellulose) (HPC)); 98 % of control (dose: 200.0 mg/kg/injection, schedule: Q01DX009 (ip), vehicle: Klucel (hydroxypropylcellulose) (HPC)); 101 % of control (dose: 200.0 mg/kg/injection, schedule: Q04DX003 (ip), vehicle: Klucel (hydroxypropylcellulose) (HPC)); 95 % of control (dose: 400.0 mg/kg/injection, schedule: Q01DX009 (ip), vehicle: Klucel (hydroxypropylcellulose) (HPC)).
For `CCC(C)COC(=O)c1ccccc1-c1ccccc1C(=O)OCC(C)CC` (stereo not drawn), the T/C (dose: 100.0 mg/kg/injection, schedule: Q01DX001 (ip), vehicle: other) is 96 % of control; the T/C (dose: 200.0 mg/kg/injection, schedule: Q01DX001 (ip), vehicle: other) was 98 % of control; the T/C (dose: 400.0 mg/kg/injection, schedule: Q01DX001 (ip), vehicle: other) is 96 % of control.
As to `CN1CCC=C(CN(c2ccccc2)c2ccccc2)C1`, the T/C is, setting by setting: (dose: 25.0 mg/kg/injection, schedule: Q01DX009 (ip), vehicle: saline) 93 % of control; (dose: 25.0 mg/kg/injection, schedule: Q04DX003 (ip), vehicle: saline) 92 % of control; under setting [9], 100 % of control; (dose: 50.0 mg/kg/injection, schedule: Q04DX003 (ip), vehicle: saline) 96 % of control; under setting [4], 91 % of control; (dose: 100.0 mg/kg/injection, schedule: Q04DX003 (ip), vehicle: saline) 95 % of control.
With `CC/C=C(\CC(=O)OCC)C(=O)OCC`, the T/C is, setting by setting: (dose: 100.0 mg/kg/injection, schedule: Q01DX009 (ip), vehicle: saline with Tween-80) 101 % of control; (dose: 200.0 mg/kg/injection, schedule: Q01DX009 (ip), vehicle: saline with Tween-80) 96 % of control; (dose: 400.0 mg/kg/injection, schedule: Q01DX009 (ip), vehicle: saline with Tween-80) 92 % of control.
